Values quoted from earlier work as cited in patent US6444811B1, “Pyrazinones, compositions containing such compounds and methods of use” (Merck Frosst Canada & Co., priority 1999, dated 2002).
pKi: −log10 of the molar value.

Columns and labels:
caspase-3 = target: T1, caspase-3 (Homo sapiens, UniProt P42574)
T1 sequence (P42574 29-175 limits assumed): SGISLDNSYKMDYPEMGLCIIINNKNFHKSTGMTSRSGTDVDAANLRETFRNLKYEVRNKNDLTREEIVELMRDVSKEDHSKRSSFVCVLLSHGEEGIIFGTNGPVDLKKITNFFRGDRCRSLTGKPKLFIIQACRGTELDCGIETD
T1 sequence (P42574 176-277 limits assumed): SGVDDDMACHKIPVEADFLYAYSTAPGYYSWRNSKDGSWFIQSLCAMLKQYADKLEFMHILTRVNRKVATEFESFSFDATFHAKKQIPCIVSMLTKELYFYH

caspase-1 = target: T2, caspase-1 (Homo sapiens, UniProt P29466)
T2 sequence (P29466 120-297 limits assumed): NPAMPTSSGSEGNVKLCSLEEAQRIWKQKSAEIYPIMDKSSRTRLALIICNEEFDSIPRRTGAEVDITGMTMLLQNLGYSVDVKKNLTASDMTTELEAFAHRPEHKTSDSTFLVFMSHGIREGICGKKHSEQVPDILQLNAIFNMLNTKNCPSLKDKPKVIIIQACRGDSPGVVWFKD
T2 sequence (P29466 317-404 limits assumed): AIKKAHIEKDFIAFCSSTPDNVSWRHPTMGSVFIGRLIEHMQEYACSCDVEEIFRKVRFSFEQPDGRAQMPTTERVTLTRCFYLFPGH

## Ac-YVAD-CHO
caspase-3
  pKi: 4.92
caspase-1
  pKi: > 9.00
caspase-1; slow-binding time-dependent inhibition
  kon caspase-1: 380000 M⁻¹ s⁻¹
